According to PMC8292411 (British Journal of Cancer, 2021):
“Also recorded” adds a separate entry of the source. Counter-ions that a name gives are not always drawn. Like-named read-outs stand apart in the source and are kept apart here.

Tests used:
[1] = system: SACT-naive Asian patients with aHCC with MET overexpression; test: Phase 2 safety (adverse events, NCI-CTCAE v4.0); details: for treatment-related AEs: ALT increased / treatment-related AEs: AST increased / treatment-related AEs: Alopecia / treatment-related AEs: Blood bilirubin increased / treatment-related AEs: Blood creatinine increased / treatment-related AEs: Diarrhoea / treatment-related AEs: Fatigue / treatment-related AEs: Hypertension / treatment-related AEs: Hypoalbuminaemia / treatment-related AEs: Oedema peripheral / treatment-related AEs: Overall / treatment-related AEs: PPES: Phase 2, safety analysis set
Protocol: (§1) Patients in both phases continued to receive allocated therapy until disease progression, intolerable toxicity or withdrawal of consent.
DLTs are defined in Supplementary Table 3.
(§2) In Phase 2, analyses were conducted according to randomised treatment assignment. […] In total, 100 TTP events were required to ensure 80% power (with a two-sided significance level of 10%) for rejecting the null hypothesis of equal treatment effect between treatment arms, assuming a true hazard ratio (HR) of 0.6. […] For the primary and secondary time-to-event endpoints, treatment groups were compared in the mITT population, applying a two-sided log-rank test, stratified by BCLC stage (α = 10%).

[2] = system: advanced HCC with MET overexpression; test: Phase 2 randomised efficacy, tepotinib vs sorafenib (TTP, PFS, OS, response; RECIST v1.1); format: in vivo, human; details: Phase 2, mITT
Text: as §1
(§3) In Phase 2, the primary endpoint was independent review committee (IRC)-assessed time to progression (TTP) per Response Evaluation Criteria in Solid Tumors (RECIST) v1.1. Secondary endpoints included investigator-assessed TTP, IRC- and investigator-assessed progression-free survival (PFS), objective response rate (ORR), disease control rate, OS and safety. In both phases, tumour assessments were performed according to RECIST v1.1 based on scans taken at the end of every second cycle until Cycle 13, and every four cycles thereafter.
as §2

advanced HCC [3] = details: Phase 3 Asia-Pacific sorafenib trial; cited from earlier work
advanced HCC [4] = details: Phase 3 SHARP sorafenib trial; cited from earlier work
[5] = patients with moderate hepatic impairment (Child–Pugh B); cited from earlier work
advanced HCC [6] = test: Phase 1b tumour response per RECIST v1.1; format: in vivo, human; details: for duration of partial response: one patient
Protocol: as §3

[7] = system: Asian patients with advanced HCC; test: Phase 1b dose escalation: DLTs and adverse events
Protocol: This was an open-label, multicentre, integrated, Phase 1b/2 trial conducted in Asian patients with advanced HCC (NCT01988493). […] Phase 1b was conducted at eight sites and Phase 2 at 43 sites in mainland China, South Korea and Taiwan.
Once three patients had completed one cycle at 500 mg, nine further patients were to be enrolled at this dose level to confirm the RP2D. […] The Safety Monitoring Committee (SMC) could also recommend enrolment of additional patients at or above the RP2D.
In Phase 1b, the primary endpoint was the incidence of investigator-assessed DLTs occurring in Cycle 1, as well as the incidence of other AEs (graded according to the National Cancer Institute Common Terminology and Criteria for Adverse Events, v4.0). […] Secondary endpoints in Phase 1b included efficacy measures and pharmacokinetic parameters, such as Cmax and area under the concentration–time curve over the dosing interval at steady state (AUCτ,ss), which were evaluated at Cycle 1, Day 15.

[8] = Phase 1b pharmacokinetics, Cycle 1 Day 15; format: in vivo, human; details: for AUC / Cmax: human, in vivo, oral, Cycle 1 Day 15, geometric mean
Protocol: Secondary endpoints in Phase 1b included efficacy measures and pharmacokinetic parameters, such as Cmax and area under the concentration–time curve over the dosing interval at steady state (AUCτ,ss), which were evaluated at Cycle 1, Day 15.

MET = system: MET; design: method as in PMID 28862760; details: cited from earlier work
HCC with MET alterations = system: HCC with MET alterations; design: method as in PMID 31853265; details: 30 patients with HCC with MET alterations, first-line; cited from earlier work
[9] = Phase 1b, across all dose cohorts
[10] = Phase 1b, 500 mg dose, comparator ref 13

SMILES: CNC(=O)c1cc(Oc2ccc(NC(=O)Nc3ccc(Cl)c(C(F)(F)F)c3)cc2)ccn1 [Sorafenib, sorafenib]
- aspartate transaminase increase, any cause ([1]; Phase 2): 36.4%
- deaths deemed treatment-related ([1]; Phase 2): neither were deemed treatment-related
- decreased appetite, any cause ([1]; Phase 2): 40.9%
- diarrhoea, any cause ([1]; Phase 2): 38.6%
- palmar–plantar erythrodysesthesia, any cause ([1]; Phase 2): 61.4%
- patients who died due to AEs while on treatment ([1]; Phase 2): Two
- patients with AEs of any cause ([1]; Phase 2): 97.7%
- patients with Grade ≥3 AEs of any cause ([1]; Phase 2): 70.5%
- permanent treatment discontinuation due to AEs of any cause ([1]; Phase 2): 13.6%
- treatment-related diarrhoea ([1]; Phase 2, any grade): 31.8%
- treatment-related palmar–plantar erythrodysesthesia ([1]; Phase 2, any grade): 61.4%
- treatment-related AEs: ALT increased ([1]; Any grade): 7 (15.9) n (%)
- treatment-related AEs: AST increased ([1]; Any grade): 10 (22.7) n (%)
- treatment-related AEs: Alopecia ([1]; Any grade): 10 (22.7) n (%)
- treatment-related AEs: Blood bilirubin increased ([1]; Any grade): 8 (18.2) n (%)
- treatment-related AEs: Blood creatinine increased ([1]; Any grade): 0 (0.0) n (%)
- treatment-related AEs: Diarrhoea ([1]; Any grade): 14 (31.8) n (%)
- treatment-related AEs: Fatigue ([1]; Any grade): 11 (25.0) n (%)
- treatment-related AEs: Hypertension ([1]; Any grade): 11 (25.0) n (%)
- treatment-related AEs: Hypoalbuminaemia ([1]; Any grade): 2 (4.5) n (%)
- treatment-related AEs: Oedema peripheral ([1]; Any grade): 0 (0.0) n (%)
- treatment-related AEs: Overall ([1]; Any grade): 43 (97.7) n (%)
- treatment-related AEs: PPES ([1]; Any grade): 27 (61.4) n (%)
- treatment-related AEs: ALT increased ([1]; Grade ≥ 3): 0 (0.0) n (%)
- treatment-related AEs: AST increased ([1]; Grade ≥ 3): 3 (6.8) n (%)
- treatment-related AEs: Alopecia ([1]; Grade ≥ 3): 0 (0.0) n (%)
- treatment-related AEs: Blood bilirubin increased ([1]; Grade ≥ 3): 2 (4.5) n (%)
- treatment-related AEs: Blood creatinine increased ([1]; Grade ≥ 3): 0 (0.0) n (%)
- treatment-related AEs: Diarrhoea ([1]; Grade ≥ 3): 3 (6.8) n (%)
- treatment-related AEs: Fatigue ([1]; Grade ≥ 3): 0 (0.0) n (%)
- treatment-related AEs: Hypertension ([1]; Grade ≥ 3): 6 (13.6) n (%)
- treatment-related AEs: Hypoalbuminaemia ([1]; Grade ≥ 3): 0 (0.0) n (%)
- treatment-related AEs: Oedema peripheral ([1]; Grade ≥ 3): 0 (0.0) n (%)
- treatment-related AEs: Overall ([1]; Grade ≥ 3): 20 (45.5) n (%)
- treatment-related AEs: PPES ([1]; Grade ≥ 3): 3 (6.8) n (%)
- treatment-related AEs, Grade ≥3, overall ([1]; Phase 2, text): 45.5%
- treatment-related AEs, any grade, overall ([1]; Phase 2, text): 97.7%
- ORR by IRC [2]: 0%
- median OS [2]: 8.6 months
- median PFS assessed by IRC [2]: 1.4 months
- median investigator-assessed PFS [2]: 2.8 months
- median investigator-assessed TTP [2]: 2.8 months
- Best overall response: Complete response ([2]; IRC): 0 (0.0)
- Best overall response: Non-complete response/non-partial response ([2]; IRC): 0 (0.0)
- Best overall response: Partial response ([2]; IRC): 0 (0.0)
- Best overall response: Progressive disease ([2]; IRC): 25 (67.6)
- Best overall response: Stable disease ([2]; IRC): 8 (21.6)
- Objective response rate ([2]; IRC): 0 (0.0) n (%)
- disease control ([2]; IRC): 21.6%
- disease control rate ([2]; IRC): 8 (21.6) n (%)
- median IRC-assessed time to progression (TTP) ([2]; tepotinib 500 mg QD, sorafenib 400 mg twice daily): 1.4 months
- median TTP (advanced HCC [3]): 2.8 months
- median TTP (advanced HCC [4]): 5.5 months

SMILES: CN1CCC(COc2cnc(-c3cccc(Cn4nc(-c5cccc(C#N)c5)ccc4=O)c3)nc2)CC1 [Tepotinib, tepotinib hydrochloride hydrate]
- lower AUC from time 0 to infinity versus control subjects without hepatic impairment [5]: 12%
- lower Cmax versus control subjects without hepatic impairment [5]: 29%
- best overall response of progressive disease (advanced HCC [6]; Phase 1b, 300 mg cohort): 85.7%
- best overall response of stable disease (advanced HCC [6]; Phase 1b, 300 mg cohort): 14.3%
- disease control rate (advanced HCC [6]; Phase 1b, 300 mg cohort): 14.3%
- best overall response of progressive disease (advanced HCC [6]; Phase 1b, 500 mg cohort): 35.7%
- best overall response of stable disease (advanced HCC [6]; Phase 1b, 500 mg cohort): 42.9%
- objective response rate (ORR) (advanced HCC [6]; Phase 1b, 500 mg cohort): 7.1%
- duration of partial response (advanced HCC [6]; Phase 1b, 500 mg cohort): 19 months
- best overall response of progressive disease (advanced HCC [6]; Phase 1b, 1,000 mg cohort): 50.0%
- best overall response of stable disease (advanced HCC [6]; Phase 1b, 1,000 mg cohort): 33.3%
- objective response rate (ORR) (advanced HCC [6]; Phase 1b, 1,000 mg cohort): 16.7%
- duration of partial response (advanced HCC [6]; Phase 1b, 1,000 mg cohort): 4.4 months
- dose-limiting toxicities (DLTs) ([7]; Phase 1b, 300, 500 or 1,000 mg QD, Cycle 1): no DLTs occurred; also recorded: No DLTs were observed; also recorded: no DLTs were reported
- treatment-related AEs, Grade ≥3 [7, 9]: 33.3%
- treatment-related AEs, any grade [7, 9]: 81.5%
- patients with AEs of any cause ([7]; Phase 1b, n = 27): All patients
- AUCτ as percentage of that observed in the first-in-human trial [8, 10]: 61%
- Cmax as percentage of that observed in the first-in-human trial [8, 10]: 63%
- AUC ([8]; 1000 mg, Phase 1b, 1,000 mg QD): 28.6 µg·h/mL
- Cmax ([8]; 1000 mg, Phase 1b, 1,000 mg QD): 1.37 µg/mL
- AUC ([8]; Phase 1b, 300 mg QD): 11.8 µg·h/mL
- Cmax ([8]; Phase 1b, 300 mg QD): 0.585 µg/mL
- AUC ([8]; Phase 1b, 500 mg QD): 16.7 µg·h/mL
- Cmax ([8]; Phase 1b, 500 mg QD): 0.815 µg/mL

SMILES: COc1cc2nccc(Oc3ccc(NC(=O)C4(C(=O)Nc5ccc(F)cc5)CC4)cc3)c2cc1OC [cabozantinib]
- in vitro IC50 for MET inhibition (MET): low nanomolar range

SMILES: CNC(=O)c1ccc(-c2cnc3ncc(Cc4ccc5ncccc5c4)n3n2)cc1F [capmatinib]
- ORR (HCC with MET alterations): 10%

SMILES: O=C1NC(=O)[C@@H](c2cn3c4c(cccc24)CCC3)[C@@H]1c1c[nH]c2ccccc12 [tivantinib]
- affinity for the MET receptor (MET; relative to tepotinib, cabozantinib and capmatinib): lower affinity for the receptor
